What was measured:
[1] = system: bicistronic HCV replicon (replicon RNA, GenBank Accession No. AJ242654); assay: HCV Replicon Assay; assay type: cell-based; conditions: Hepatitis C virus, 72 h, read-out: Replicon IC50

Question: For `Cc1cc2c(cc1F)c(C(N)=O)c(-c1ccc(S(=O)(=O)N[C@@H](C)C(F)(F)F)cn1)n2-c1ccc(F)cn1` [compound 876, 5-fluoro-1-(5-fluoropyridin-2-yl)-6-methyl-2-(5-{[(2S)-1,1,1-trifluoropropan-2-yl]sulfamoyl}pyridin-2-yl)-1H-indole-3-carboxamide], which melting point is on record?
Answer: 224 to 228 °C

Question: What about the IC50 [1] of the same compound?
Answer: < 0.5 µM

Question: What does the source list for `CCc1cc2c(cc1F)c(C#N)c(-c1ncc(S(=O)(=O)N[C@@H](C)C(F)(F)F)cc1C)n2-c1ncccn1` [compound 867, 6-[3-cyano-6-ethyl-5-fluoro-1-(pyrimidin-2-yl)-1H-indol-2-yl]-5-methyl-N-[(2S)-1,1,1-trifluoropropan-2-yl]pyridine-3-sulfonamide]?
Answer: melting point: 192 to 198 °C; IC50 [1]: < 0.5 µM

Question: For `Cc1cc2c(cc1F)c(C#N)c(-c1ccc(S(=O)(=O)N[C@@H](C)C(F)(F)F)cn1)n2-c1ccoc1` [compound 991, 6-[3-cyano-5-fluoro-1-(furan-3-yl)-6-methyl-1H-indol-2-yl]-N-[(2S)-1,1,1-trifluoropropan-2-yl]pyridine-3-sulfonamide], which melting point is on record?
Answer: 215 to 219 °C

Question: And the IC50 [1]?
Answer: < 0.5 µM

Question: What does the source list for `C[C@H](NS(=O)(=O)c1ccc(-c2c(C#N)c3cc(F)c(C4CC4)cc3n2C2CCCC2)nc1)C(F)(F)F` [compound 661, 6-(3-cyano-1-cyclopentyl-6-cyclopropyl-5-fluoro-1H-indol-2-yl)-N-[(2S)-1,1,1-trifluoropropan-2-yl]pyridine-3-sulfonamide]?
Answer: melting point: 189 to 190 °C; IC50 [1]: < 0.5 µM

Question: What does the source list for `CCc1cc2c(cc1F)c(C#N)c(-c1ccc(S(=O)(=O)N[C@@H](C)C(F)(F)F)cn1)n2-c1cccc(C(F)(F)F)c1` [compound 1011, 6-{3-cyano-6-ethyl-5-fluoro-1-[3-(trifluoromethyl)phenyl]-1H-indol-2-yl}-N-[(2S)-1,1,1-trifluoropropan-2-yl]pyridine-3-sulfonamide]?
Answer: melting point: 240 to 245 °C; IC50 [1]: 0.5 to 2 µM

Question: For `Cc1ccc(-n2c(-c3ccc(S(=O)(=O)NC(CF)CF)cn3)c(C#N)c3cc(F)ccc32)cc1` [compound 356, 6-[3-cyano-5-fluoro-1-(4-methylphenyl)-1H-indol-2-yl]-N-(1,3-difluoropropan-2-yl)pyridine-3-sulfonamide], which melting point is on record?
Answer: 208 to 210 °C

Question: What about the IC50 [1] of the same compound?
Answer: < 0.5 µM

Question: With `Cc1ccc2c(C#N)c(-c3ncc(S(=O)(=O)NC(C)C)cn3)n(C(C)C)c2c1` [compound 167, 2-[3-cyano-6-methyl-1-(propan-2-yl)-1H-indol-2-yl]-N-(propan-2-yl)pyrimidine-5-sulfonamide] as the compound, how does the melting point read?
Answer: 205 to 206 °C

Question: And the IC50 [1]?
Answer: < 0.5 µM

Question: Which results are given for `C[C@H](NS(=O)(=O)c1cnc(-c2c(C#N)c3ccc(C4CC4)cc3n2C2CCC2)nc1)C(F)(F)F` [compound 324, 2-(3-cyano-1-cyclobutyl-6-cyclopropyl-1H-indol-2-yl)-N-[(2S)-1,1,1-trifluoropropan-2-yl]pyrimidine-5-sulfonamide]?
Answer: melting point: 214 to 215 °C; IC50 [1]: < 0.5 µM

Question: With `COc1ccc2c(c1)c(C#N)c(-c1ncc(S(=O)(=O)NC(CF)CF)cn1)n2C1CCCC1` [compound 572, 2-(3-cyano-1-cyclopentyl-5-methoxy-1H-indol-2-yl)-N-(1,3-difluoropropan-2-yl)pyrimidine-5-sulfonamide] as the compound, how does the melting point read?
Answer: 200 to 202 °C

Question: And the IC50 [1]?
Answer: < 0.5 µM

Question: For `C[C@H](NS(=O)(=O)c1ccc(-c2c(C#N)c3ccc(OC(F)(F)F)cc3n2CC2CC2)nc1)C1CC1` [compound 309, 6-[3-cyano-1-(cyclopropylmethyl)-6-(trifluoromethoxy)-1H-indol-2-yl]-N-[(1S)-1-cyclopropylethyl]pyridine-3-sulfonamide], which melting point is on record?
Answer: 115 to 117 °C

Question: And the IC50 [1]?
Answer: < 0.5 µM

Question: Which melting point does the source give for `Cc1cc2cc(-c3ccc(S(=O)(=O)N[C@@H](C)C(F)(F)F)cn3)n(C3CCC3)c2cc1OC(F)F` [compound 646, 6-[1-cyclobutyl-6-(difluoromethoxy)-5-methyl-1H-indol-2-yl]-N-[(2S)-1,1,1-trifluoropropan-2-yl]pyridine-3-sulfonamide] here?
Answer: 151 to 153 °C

Question: What about the IC50 [1] of the same compound?
Answer: 2 to 5 µM

Question: Which melting point does the source give for `Cc1cc2c(cc1F)c(C(N)=O)c(-c1ccc(S(=O)(=O)N[C@@H](C)C(F)(F)F)cn1)n2C1CCCCC1` [compound 706, 1-cyclohexyl-5-fluoro-6-methyl-2-(5-{[(2S)-1,1,1-trifluoropropan-2-yl]sulfamoyl}pyridin-2-yl)-1H-indole-3-carboxamide] here?
Answer: 273 to 279 °C

Question: And the IC50 [1]?
Answer: < 0.5 µM

Question: For `Cc1ccc2c(C#N)c(-c3ccc(S(=O)(=O)NC(CF)CF)cn3)n(-c3ccccn3)c2c1` [compound 248, 6-[3-cyano-6-methyl-1-(pyridin-2-yl)-1H-indol-2-yl]-N-(1,3-difluoropropan-2-yl)pyridine-3-sulfonamide], which melting point is on record?
Answer: 159 to 162 °C

Question: And the IC50 [1]?
Answer: < 0.5 µM

Question: Which results are given for `Cc1cc2c(cc1F)c(C(N)=O)c(-c1ccc(S(=O)(=O)N[C@@H](C)C(F)(F)F)cn1)n2-c1ncccc1F` [compound 902, 5-fluoro-1-(3-fluoropyridin-2-yl)-6-methyl-2-(5-{[(2S)-1,1,1-trifluoropropan-2-yl]sulfamoyl}pyridin-2-yl)-1H-indole-3-carboxamide]?
Answer: melting point: 130 to 138 °C; IC50 [1]: 0.5 to 2 µM

Question: Which results are given for `N#Cc1ccc2c(C#N)c(-c3ccc(S(=O)(=O)NC(CF)CF)cn3)n(CC3CC3)c2c1` [compound 347, 6-[3,6-dicyano-1-(cyclopropylmethyl)-1H-indol-2-yl]-N-(1,3-difluoropropan-2-yl)pyridine-3-sulfonamide]?
Answer: melting point: 199 to 201 °C; IC50 [1]: 0.5 to 2 µM

Question: With `CCCn1c(-c2ccc(S(=O)(=O)N[C@@H](C)C(F)(F)F)cn2)c(C#N)c2cc(F)c(OC(F)F)cc21` [compound 786, 6-[3-cyano-6-(difluoromethoxy)-5-fluoro-1-propyl-1H-indol-2-yl]-N-[(2S)-1,1,1-trifluoropropan-2-yl]pyridine-3-sulfonamide] as the compound, how does the melting point read?
Answer: 162 to 168 °C

Question: What about the IC50 [1] of the same compound?
Answer: < 0.5 µM

Question: With `C[C@H](NS(=O)(=O)c1ccc(-c2c(C#N)c3ccc(C4CC4)cc3n2C2CCCC2)nc1)C(F)(F)F` [compound 383, 6-(3-cyano-1-cyclopentyl-6-cyclopropyl-1H-indol-2-yl)-N-[(2S)-1,1,1-trifluoropropan-2-yl]pyridine-3-sulfonamide] as the compound, how does the melting point read?
Answer: 178 to 181 °C

Question: What about the IC50 [1] of the same compound?
Answer: < 0.5 µM

Question: Which melting point does the source give for `C[C@H](NS(=O)(=O)c1cnc(-c2c(C#N)c3ccc(C4CC4)cc3n2C2CCCC2)nc1)C(F)(F)F` [compound 401, 2-(3-cyano-1-cyclopentyl-6-cyclopropyl-1H-indol-2-yl)-N-[(2S)-1,1,1-trifluoropropan-2-yl]pyrimidine-5-sulfonamide] here?
Answer: 238 to 239 °C

Question: What about the IC50 [1] of the same compound?
Answer: < 0.5 µM

Question: Which melting point does the source give for `CCc1cc2c(cc1F)c(C#N)c(-c1ccc(S(=O)(=O)N[C@@H](C)C(F)(F)F)cn1)n2-c1ncc(Cl)cn1` [compound 942, 6-[1-(5-chloropyrimidin-2-yl)-3-cyano-6-ethyl-5-fluoro-1H-indol-2-yl]-N-[(2S)-1,1,1-trifluoropropan-2-yl]pyridine-3-sulfonamide] here?
Answer: 222 to 229 °C

Question: What about the IC50 [1] of the same compound?
Answer: < 0.5 µM

Question: Which results are given for `CCc1cc2c(cc1F)c(C(N)=O)c(-c1ccc(S(=O)(=O)N[C@@H](C)C(F)(F)F)cn1)n2-c1cnccn1` [compound 994, 6-ethyl-5-fluoro-1-(pyrazin-2-yl)-2-(5-{[(2S)-1,1,1-trifluoropropan-2-yl]sulfamoyl}pyridin-2-yl)-1H-indole-3-carboxamide]?
Answer: melting point: 120 to 127 °C; IC50 [1]: < 0.5 µM

Question: What does the source list for `N#Cc1c(-c2ncc(S(=O)(=O)NC(CF)CF)cn2)n(C2CCCC2)c2cc(OC(F)F)ccc12` [compound 233, 2-[3-cyano-1-cyclopentyl-6-(difluoromethoxy)-1H-indol-2-yl]-N-(1,3-difluoropropan-2-yl)pyrimidine-5-sulfonamide]?
Answer: melting point: 199 to 201 °C; IC50 [1]: < 0.5 µM

Question: Which melting point does the source give for `CC(C)NS(=O)(=O)c1cnc(-c2c(C#N)c3cc(F)ccc3n2CC2CC2)nc1` [compound 303, 2-[3-cyano-1-(cyclopropylmethyl)-5-fluoro-1H-indol-2-yl]-N-(propan-2-yl)pyrimidine-5-sulfonamide] here?
Answer: 215 to 220 °C

Question: What about the IC50 [1] of the same compound?
Answer: < 0.5 µM

Question: With `C[C@H](NS(=O)(=O)c1ccc(-c2c(C#N)c3ccc(F)cc3n2C2CCCCC2)nc1)C(F)(F)F` [compound 394, 6-(3-cyano-1-cyclohexyl-6-fluoro-1H-indol-2-yl)-N-[(2S)-1,1,1-trifluoropropan-2-yl]pyridine-3-sulfonamide] as the compound, how does the melting point read?
Answer: 213 to 215 °C

Question: And the IC50 [1]?
Answer: < 0.5 µM

Question: What does the source list for `C[C@H](NS(=O)(=O)c1ccc(-c2c(C#N)c3ccc(OC(F)F)cc3n2-c2ccccc2)nc1)C(F)(F)F` [compound 553, 6-[3-cyano-6-(difluoromethoxy)-1-phenyl-1H-indol-2-yl]-N-[(2S)-1,1,1-trifluoropropan-2-yl]pyridine-3-sulfonamide]?
Answer: melting point: 209 to 211 °C; IC50 [1]: < 0.5 µM

Question: With `N#Cc1c(-c2ncc(S(=O)(=O)NC(CF)CF)cn2)n(C2CCCCC2)c2cc(OC(F)(F)F)ccc12` [compound 306, 2-[3-cyano-1-cyclohexyl-6-(trifluoromethoxy)-1H-indol-2-yl]-N-(1,3-difluoropropan-2-yl)pyrimidine-5-sulfonamide] as the compound, how does the melting point read?
Answer: 168 to 170 °C

Question: And the IC50 [1]?
Answer: 0.5 to 2 µM

Question: Which melting point does the source give for `N#Cc1c(-c2ccc(S(=O)(=O)NC(CF)CF)cn2)n(C2CCOC2)c2ccc(F)cc12` (centres unmarked) [compound 46, 6-[3-cyano-5-fluoro-1-(tetrahydrofuran-3-yl)-1H-indol-2-yl]-N-(1,3-difluoropropan-2-yl)pyridine-3-sulfonamide] here?
Answer: 194 to 197 °C

Question: What about the IC50 [1] of the same compound?
Answer: < 0.5 µM

Question: Which melting point does the source give for `C[C@H](NS(=O)(=O)c1ccc(-c2c(C#N)c3cc(F)c(OC(F)F)cc3n2CCO)nc1)C(F)(F)F` [compound 940, 6-[3-cyano-6-(difluoromethoxy)-5-fluoro-1-(2-hydroxyethyl)-1H-indol-2-yl]-N-[(2S)-1,1,1-trifluoropropan-2-yl]pyridine-3-sulfonamide] here?
Answer: 203 to 208 °C

Question: What about the IC50 [1] of the same compound?
Answer: 0.5 to 2 µM

Question: Which melting point does the source give for `CCS(=O)(=O)Nc1ccc(-c2c(C#N)c3ccc(OC(C)C)cc3n2CC2CC2)nc1` [compound 279, N-{6-[3-cyano-1-(cyclopropylmethyl)-6-(propan-2-yloxy)-1H-indol-2-yl]pyridin-3-yl}ethanesulfonamide] here?
Answer: 149 to 154 °C

Question: What about the IC50 [1] of the same compound?
Answer: 0.5 to 2 µM
